Results published in patent publication US11230532B2, “Pyrimidines and variants thereof, and uses therefor” (Afferent Pharmaceuticals Inc., priority 2016, dated 2022).
Like-named read-outs stand apart in the source and are kept apart here.

Assays:
P2X3 [1] = experiment: Mean pIC50s at P2X3 from Carter et al (literature); type: cell-based
P2X3 [2] = conditions: oxygen-linked analogs; from Carter et al, Bioorg Med Chem Lett 2009; cited from earlier work

SMILES	Selectivity, X = O (P2X3 [1]; potency ratio P2X3 over P2X2/3 from the cited pIC50s)	P2X3 mean pIC50, X = O (P2X3 [2])	Selectivity, X = O (P2X3 [1])
COc1cc(C(C)C)c(Oc2cnc(N)nc2N)cc1Cl [D, X = O]	4	7.6	–
COc1cc(C(C)C)c(Oc2cnc(N)nc2N)cc1I [B, X = O]	–	8.0	8
COc1cc(Oc2cnc(N)nc2N)c(C(C)C)cc1OC [Row A, X = O, reference compound]	–	7.6	–
COc1cc(C(C)C)c(Oc2cnc(N)nc2N)cc1S(C)(=O)=O [C, X = O]	–	7.0	10
